Assay results published in paper PMC3724770 (ACS combinatorial science, 2012).

Biological target: T1, fms-like receptor tyrosine kinase-3 (FLT3) (Homo sapiens, UniProt P36888)
T1 sequence (P36888 27-993): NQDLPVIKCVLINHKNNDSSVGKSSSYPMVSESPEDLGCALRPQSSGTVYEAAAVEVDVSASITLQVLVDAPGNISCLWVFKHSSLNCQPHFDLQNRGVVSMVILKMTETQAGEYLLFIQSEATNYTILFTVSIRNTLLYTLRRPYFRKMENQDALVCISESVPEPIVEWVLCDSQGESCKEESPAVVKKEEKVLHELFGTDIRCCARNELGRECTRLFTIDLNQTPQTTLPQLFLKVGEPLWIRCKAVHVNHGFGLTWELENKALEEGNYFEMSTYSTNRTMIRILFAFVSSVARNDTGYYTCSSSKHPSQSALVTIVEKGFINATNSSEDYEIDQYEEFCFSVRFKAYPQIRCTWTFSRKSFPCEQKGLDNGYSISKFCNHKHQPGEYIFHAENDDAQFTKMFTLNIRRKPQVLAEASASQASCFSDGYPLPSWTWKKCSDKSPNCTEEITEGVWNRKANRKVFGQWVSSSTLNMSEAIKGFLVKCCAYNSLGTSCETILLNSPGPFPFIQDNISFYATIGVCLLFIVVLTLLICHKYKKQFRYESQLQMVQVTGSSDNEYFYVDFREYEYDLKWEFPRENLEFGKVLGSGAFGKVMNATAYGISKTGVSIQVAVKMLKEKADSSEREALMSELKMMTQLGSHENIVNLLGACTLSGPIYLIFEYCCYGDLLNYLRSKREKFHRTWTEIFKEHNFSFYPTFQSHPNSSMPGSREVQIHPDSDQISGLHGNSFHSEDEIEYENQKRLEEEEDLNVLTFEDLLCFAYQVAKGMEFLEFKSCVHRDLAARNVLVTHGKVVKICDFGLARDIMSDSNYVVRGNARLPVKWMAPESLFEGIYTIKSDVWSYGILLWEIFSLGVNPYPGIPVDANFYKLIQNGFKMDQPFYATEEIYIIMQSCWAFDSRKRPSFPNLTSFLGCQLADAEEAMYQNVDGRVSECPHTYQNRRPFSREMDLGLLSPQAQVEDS
Type: biochemical

Q: With `CCCCNc1ncnc2c(N3CCNCC3)c[nH]c12` [compound 9, N-butyl-7-(piperazin-1-yl)-5H-pyrrolo[3,2-d]pyrimidin-4-amine] as the compound, how does the IC50 read?
A: 1920 nM
